Results reported in ChEMBL document CHEMBL4834434, “Discovery of Novel and Potent N-Methyl-d-aspartate Receptor Positive Allosteric Modulators with Antidepressant-like Activity in Rodent Models” (J Med Chem, 2021).
Calls of active or inactive are those of the source. The rule behind the calls is not given here.

Legend:
[1] = biological target: T1, Glutamate NMDA receptor (Mus musculus) (UniProt P35436+Q91ZU9+Q03391+P35438+Q01097+Q01098+A2AIR5); experiment: Positive allosteric modulation of C57BL/6 mouse NMDA receptor assessed as fold change in compound potentiated NMDA-induced current relative to NMDA current alone at 30 uM measured after 15 to 30 mins by patch-clamp method; format: tissue-based; conditions: Brain, filed as positive allosteric modulator, time 15-30 min
Glutamate NMDA receptor = experiment: Positive allosteric modulation of C57BL/6 mouse NMDA receptor assessed as potentiation of NMDA-induced current in presence of saturating glutamate by patch-clamp method; format: tissue-based, Brain
[2] = biological target: T1, Glutamate NMDA receptor (Mus musculus); experiment: Positive allosteric modulation of C57BL/6 mouse NMDA receptor assessed as fold change in compound potentiated NMDA-induced current relative to NMDA current alone in presence of saturating glutamate by patch-clamp method; format: tissue-based; conditions: Brain, filed as positive allosteric modulator
[3] = Brain to blood partition coefficient of the compound; format: physicochemical, tissue-based; conditions: read-out: logBB (converted)
Mus musculus [4] = experiment: Antidepressant activity in ICR mouse assessed as decrease in immobility time at 30 mg/kg, ip measured after 26 mins by forced swim test; format: functional, organism-based
Mus musculus [5] = experiment: Antidepressant activity in ICR mouse assessed as decrease in immobility time at 3 to 10 mg/kg, ip measured after 26 mins by forced swim test; format: functional, organism-based; conditions: dose 3-10 mg/kg
[6] = Effect on locomotor activity in ICR mouse assessed as hyperlocomotion at 10 mg/kg, ip measured after 90 mins; format: ADME, organism-based; conditions: in vivo, 1.5 h
[7] = biological target: D(2) dopamine receptor (Homo sapiens) (UniProt P14416); experiment: Displacement of [3H]-methylspiperone from human dopamine D2 receptor expressed in CHO cells incubated for 30 mins by liquid scintillation counting analysis; format: cell-based
D(2) dopamine receptor (Homo sapiens), sequence (P14416 whole entry): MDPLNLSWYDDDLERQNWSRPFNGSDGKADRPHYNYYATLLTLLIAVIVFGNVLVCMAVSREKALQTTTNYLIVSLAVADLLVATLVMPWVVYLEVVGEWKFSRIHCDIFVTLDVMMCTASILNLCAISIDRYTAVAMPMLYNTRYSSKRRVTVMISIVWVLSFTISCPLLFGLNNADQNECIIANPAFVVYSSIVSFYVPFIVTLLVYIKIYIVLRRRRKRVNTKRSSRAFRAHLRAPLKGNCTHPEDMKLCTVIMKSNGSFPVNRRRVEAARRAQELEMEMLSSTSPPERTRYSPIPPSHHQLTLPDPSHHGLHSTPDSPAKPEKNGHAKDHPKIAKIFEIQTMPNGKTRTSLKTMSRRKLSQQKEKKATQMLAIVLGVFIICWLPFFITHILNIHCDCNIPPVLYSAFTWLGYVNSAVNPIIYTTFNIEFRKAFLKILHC

[8] = biological target: D(3) dopamine receptor (Homo sapiens) (UniProt P35462); experiment: Displacement of [3H]-methylspiperone from human dopamine D3 receptor expressed in CHO cells incubated for 60 mins by liquid scintillation counting analysis; format: cell-based
D(3) dopamine receptor (Homo sapiens), sequence (P35462 whole entry): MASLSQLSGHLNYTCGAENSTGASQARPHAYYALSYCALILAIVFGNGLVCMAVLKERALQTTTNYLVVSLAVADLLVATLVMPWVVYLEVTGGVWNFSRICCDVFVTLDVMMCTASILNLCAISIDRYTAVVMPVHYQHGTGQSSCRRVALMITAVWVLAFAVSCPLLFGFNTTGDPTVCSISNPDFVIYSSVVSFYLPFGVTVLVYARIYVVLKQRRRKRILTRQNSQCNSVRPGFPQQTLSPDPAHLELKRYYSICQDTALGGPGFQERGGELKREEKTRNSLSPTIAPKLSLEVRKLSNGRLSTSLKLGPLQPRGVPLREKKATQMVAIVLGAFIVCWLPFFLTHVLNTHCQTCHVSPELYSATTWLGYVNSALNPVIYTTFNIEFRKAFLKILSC

[9] = biological target: 5-hydroxytryptamine receptor 1B (Homo sapiens) (UniProt P28222); experiment: Displacement of [3H]-GR125743 from 5HT1BR (unknown origin) expressed in CHO cells; format: cell-based
5-hydroxytryptamine receptor 1B (Homo sapiens), sequence (P28222 whole entry): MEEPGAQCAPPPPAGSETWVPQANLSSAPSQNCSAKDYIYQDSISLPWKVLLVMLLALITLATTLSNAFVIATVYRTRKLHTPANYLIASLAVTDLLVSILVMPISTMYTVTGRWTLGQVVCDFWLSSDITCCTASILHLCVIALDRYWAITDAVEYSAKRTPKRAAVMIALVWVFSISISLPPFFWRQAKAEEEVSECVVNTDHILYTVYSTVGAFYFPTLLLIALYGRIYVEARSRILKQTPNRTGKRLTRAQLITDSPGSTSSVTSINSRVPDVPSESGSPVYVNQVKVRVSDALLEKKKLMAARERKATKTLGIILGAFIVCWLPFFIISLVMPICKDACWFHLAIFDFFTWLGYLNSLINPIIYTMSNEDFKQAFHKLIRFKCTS

[10] = biological target: 5-hydroxytryptamine receptor 2C (Rattus norvegicus) (UniProt P08909); experiment: Displacement of [3H]-mesulergine from rat cerebral cortex 5HT2CR incubated for 15 mins by liquid scintillation counting analysis; format: tissue-based
5-hydroxytryptamine receptor 2C (Rattus norvegicus), sequence (P08909 whole entry): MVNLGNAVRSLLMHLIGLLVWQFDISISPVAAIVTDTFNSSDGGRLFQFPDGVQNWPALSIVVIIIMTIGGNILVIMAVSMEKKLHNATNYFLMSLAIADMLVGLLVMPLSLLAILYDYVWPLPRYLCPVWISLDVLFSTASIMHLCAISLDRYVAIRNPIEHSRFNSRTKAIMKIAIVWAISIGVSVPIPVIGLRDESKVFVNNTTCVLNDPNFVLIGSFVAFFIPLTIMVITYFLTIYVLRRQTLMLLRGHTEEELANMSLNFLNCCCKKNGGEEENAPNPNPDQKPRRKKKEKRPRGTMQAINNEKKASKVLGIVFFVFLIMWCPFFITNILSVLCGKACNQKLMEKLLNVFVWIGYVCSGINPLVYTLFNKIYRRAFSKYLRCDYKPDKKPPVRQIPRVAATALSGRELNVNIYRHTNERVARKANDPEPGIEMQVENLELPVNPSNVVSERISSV

[11] = biological target: Sodium-dependent serotonin transporter (Homo sapiens) (UniProt P31645); experiment: Displacement of [3H]-paroxetine from SERT (unknown origin); design: dose or concentration left out as unconfirmed
Sodium-dependent serotonin transporter (Homo sapiens), sequence (P31645 whole entry, looked up): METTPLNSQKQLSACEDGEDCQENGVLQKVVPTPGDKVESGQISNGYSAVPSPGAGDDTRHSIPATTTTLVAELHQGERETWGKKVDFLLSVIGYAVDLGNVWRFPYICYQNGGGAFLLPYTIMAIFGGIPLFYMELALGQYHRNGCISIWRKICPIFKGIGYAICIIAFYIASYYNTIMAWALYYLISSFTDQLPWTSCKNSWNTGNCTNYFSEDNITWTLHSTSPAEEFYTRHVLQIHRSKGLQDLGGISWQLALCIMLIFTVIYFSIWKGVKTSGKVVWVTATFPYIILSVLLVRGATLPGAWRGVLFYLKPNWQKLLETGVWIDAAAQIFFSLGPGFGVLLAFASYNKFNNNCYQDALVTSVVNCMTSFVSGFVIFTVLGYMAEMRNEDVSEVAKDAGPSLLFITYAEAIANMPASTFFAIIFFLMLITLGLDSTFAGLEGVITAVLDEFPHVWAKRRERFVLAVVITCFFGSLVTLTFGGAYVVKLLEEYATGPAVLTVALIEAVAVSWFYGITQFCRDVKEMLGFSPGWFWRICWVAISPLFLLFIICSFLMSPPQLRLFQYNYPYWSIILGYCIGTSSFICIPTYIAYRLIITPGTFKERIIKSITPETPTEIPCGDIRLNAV

[12] = Half life in ICR mouse at 3 mg/kg, iv measured up to 24 hrs by HPLC-MS/MS analysis; format: ADME, organism-based; conditions: in vivo
[13] = AUC (0 to t) in ICR mouse at 3 mg/kg, iv measured up to 24 hrs by HPLC-MS/MS analysis; format: ADME, organism-based; design: route intravenous, dose 3 mg/kg, time <=24; conditions: in vivo
[14] = Clearance in ICR mouse at 3 mg/kg, iv measured up to 24 hrs by HPLC-MS/MS analysis; format: ADME, organism-based; conditions: in vivo
[15] = Drug concentration in ICR mouse plasma at 3 mg/kg, iv measured at 2 hrs; format: ADME, organism-based
[16] = AUC (0 to t) in ICR mouse at 10 mg/kg, po measured up to 24 hrs by HPLC-MS/MS analysis; format: ADME, organism-based; design: route oral, dose 10 mg/kg, time <=24; conditions: in vivo
[17] = MRT in ICR mouse at 10 mg/kg, po measured up to 24 hrs by HPLC-MS/MS analysis; format: ADME, organism-based; conditions: in vivo
[18] = Oral bioavailability in ICR mouse at 10 mg/kg measured up to 24 hrs by HPLC-MS/MS analysis; format: ADME, organism-based; conditions: in vivo
[19] = Drug concentration in ICR mouse brain at 10 mg/kg, po measured at 0.5 hrs by LC-MS/MS analysis; format: ADME, organism-based; conditions: read-out: Ct
[20] = Drug concentration in ICR mouse plasma at 10 mg/kg, po measured at 0.5 hrs by LC-MS/MS analysis; format: ADME, organism-based
[21] = Drug concentration in ICR mouse plasma at 10 mg/kg, po measured at 2 hrs by LC-MS/MS analysis; format: ADME, organism-based
[22] = Ratio of drug concentration in brain to plasma in ICR mouse at 10 mg/kg, po measured at 2 hrs by LC-MS/MS analysis; format: ADME, organism-based; conditions: read-out: BPR
[23] = Cmax in Sprague-Dawley rat at 3 mg/kg, iv measured up to 1280 mins by HPLC-MS/MS analysis; format: ADME, organism-based; design: route intravenous, dose 3 mg/kg, time <=1280; conditions: in vivo
[24] = Drug concentration in Sprague-Dawley rat brain at 3 mg/kg, iv measured at 20 mins by LC-MS/MS analysis; format: ADME, organism-based; conditions: read-out: Ct
[25] = Drug concentration in Sprague-Dawley rat plasma at 3 mg/kg, iv measured at 20 mins by LC-MS/MS analysis; format: ADME, organism-based
[26] = Ratio of drug concentration in brain to plasma in Sprague-Dawley rat at 3 mg/kg, iv measured at 80 mins by LC-MS/MS analysis; format: ADME, organism-based; conditions: read-out: BPR
[27] = Cytotoxicity against African green monkey Vero cells assessed as cell growth inhibition at 120 uM measured after 48 hrs by CCK8 assay relative to control; format: cell-based; conditions: chlorocebus sabaeus
hERG (KCNH2) = hERG (KCNH2) (Homo sapiens, UniProt Q12809); experiment: Inhibition of human ERG expressed in CHO cells at 30 uM with holding potential at -80 to -60 mV for 500s followed by raise in potential at +30 mV for 2 sec and subsequent repolarization to -60 mV for 2 sec by whole-cell patch clamp method relative to control; format: cell-based; conditions: CHO cells expressing human ERG
hERG (KCNH2), sequence (Q12809 whole entry): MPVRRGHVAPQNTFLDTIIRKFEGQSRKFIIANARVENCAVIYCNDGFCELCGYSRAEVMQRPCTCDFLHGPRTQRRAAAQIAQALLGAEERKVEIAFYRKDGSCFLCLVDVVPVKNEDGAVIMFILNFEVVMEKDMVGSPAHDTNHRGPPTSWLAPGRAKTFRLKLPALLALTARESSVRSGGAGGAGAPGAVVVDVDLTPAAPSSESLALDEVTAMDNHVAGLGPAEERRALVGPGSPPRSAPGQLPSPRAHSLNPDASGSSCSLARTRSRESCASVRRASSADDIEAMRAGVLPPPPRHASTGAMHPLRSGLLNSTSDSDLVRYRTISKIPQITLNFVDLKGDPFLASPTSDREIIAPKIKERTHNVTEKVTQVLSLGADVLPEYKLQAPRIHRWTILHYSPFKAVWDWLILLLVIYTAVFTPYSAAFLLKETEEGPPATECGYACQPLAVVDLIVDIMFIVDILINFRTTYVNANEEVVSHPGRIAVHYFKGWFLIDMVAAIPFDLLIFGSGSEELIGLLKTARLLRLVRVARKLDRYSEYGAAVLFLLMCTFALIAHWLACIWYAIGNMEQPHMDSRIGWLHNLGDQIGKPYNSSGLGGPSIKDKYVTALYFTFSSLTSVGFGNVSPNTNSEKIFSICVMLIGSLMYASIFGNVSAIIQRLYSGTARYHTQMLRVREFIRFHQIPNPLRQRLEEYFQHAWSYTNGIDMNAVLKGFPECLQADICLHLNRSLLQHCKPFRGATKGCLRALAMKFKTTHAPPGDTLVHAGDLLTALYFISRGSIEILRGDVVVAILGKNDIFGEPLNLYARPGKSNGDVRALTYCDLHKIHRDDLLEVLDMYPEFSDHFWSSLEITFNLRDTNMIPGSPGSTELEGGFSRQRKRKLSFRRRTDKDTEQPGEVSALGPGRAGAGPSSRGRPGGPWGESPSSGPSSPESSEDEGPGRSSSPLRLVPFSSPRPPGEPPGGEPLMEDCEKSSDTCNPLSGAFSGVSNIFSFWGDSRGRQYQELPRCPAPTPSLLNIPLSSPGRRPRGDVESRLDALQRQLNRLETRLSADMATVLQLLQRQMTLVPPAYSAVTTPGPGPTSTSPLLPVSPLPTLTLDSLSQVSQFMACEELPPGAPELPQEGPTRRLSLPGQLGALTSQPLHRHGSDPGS

[28] = Acute toxicity in ip dosed ICR mouse assessed as lethal dose measured after 24 hrs; format: organism-based; conditions: in vivo
[29] = […] in ICR mouse assessed as decrease in body weight at 30 mg/kg, po administered for 28 days; format: organism-based; conditions: in vivo, 672 h, time 28 day

Cc1cc(C)n(Cc2ccc(C(=O)Nc3ccc(Cl)c(Cl)c3)s2)n1
fold change (FC) [1]: 12.5
EC50 (Glutamate NMDA receptor): 2.4 µM
fold change (FC) [2]: 14.3
Kp [3]: 1.26
Activity (Mus musculus [4]): Active
Activity (Mus musculus [5]): Active
Activity [6]: Non-Toxic
inhibition [7]: inactive
inhibition [8]: inactive
inhibition [9]: inactive
inhibition [10]: inactive
inhibition [11]: inactive
half-life [12]: 2.8 h
AUC(0-t) at 24 h [13]: 1450 ng·h/mL
clearance [14]: 33.3 mL/min/kg
concentration at 2 h [15]: 2940 ng/mL
AUC(0-t) at 24 h [16]: 3050 ng·h/mL
MRT [17]: 4.2 h
bioavailability [18]: 63.3%
concentration at 0.5 h [19]: 281 ng/mL
concentration at 0.5 h [20]: 760 ng/mL
concentration at 2 h [21]: 451 ng/mL
Kp at 2 h [22]: 0.38
Cmax [23]: 2350 ng/mL
concentration at 20 min [24]: 2190 ng/g
concentration at 20 min [25]: 1490 ng/mL
Kp at 1.333 h [26]: 1.5
inhibition at 48 h, 120 µM [27]: 22.6%
inhibition at 2 s, 30 µM (hERG (KCNH2)): 35.4%
LD50 at 24 h [28]: 1500 mg/kg
Activity [29]: Toxic
